Here are results for 13 compounds from patent publication US20240058450A1, “BCL-XL Inhibitory Compounds Having Low Cell Permeability and Antibody Drug Conjugates Including the Same” (AbbVie Inc., priority 2014, published 2024).

Read-outs that look alike come from different tables or passages of the source.

A word on the EC50: it is the concentration that produces a half-maximal response. A high value points to weaker potency. One may read the Ki as the equilibrium dissociation constant of an inhibitor or competing ligand from its target.

Assay [1] has as its system Molt-4 human acute lymphoblastic leukemia cells. As to the kind of experiment: Molt-4 cell viability assay (CellTiter-Glo, 48 hours, 10% HS). Conditions: Homo sapiens, MOLT-4, 48 h, non-permeabilized cells. It counts as cell-based. As for the experimental part: The ability of Bcl-xL inhibitors that are able to traverse cell membranes to inhibit Bcl-xL can be determined in cell-based killing assays using a variety of cell lines and mouse tumor models. For example, their activity on cell viability can be assessed on a panel of cultured tumorigenic and non-tumorigenic cell lines, as well as primary mouse or human cell populations.
In one exemplary set of conditions, Molt-4 (ATCC, Manassas, VA) human acute lymphoblastic leukemia cells were plated 12,500 cells per well in 384-well tissue culture plates (Corning, Corning, NY) in a total volume of 25 μL tissue culture medium supplemented with 10% human serum (Sigma-Aldrich, St. Louis, MO) and treated with a 3-fold serial dilution of the compounds of interest from 10 μM to 0.0005 μM. Each concentration was tested in duplicate at least 3 separate times. The number of viable cells following 48 hours of compound treatment was determined using the CellTiter-Glo®, Luminescent Cell Viability Assay according to the manufacturer's recommendations (Promega Corp., Madison, WI). Compounds were tested in the presence of 10% HS.

Assay [2] addresses Bcl-xL (Homo sapiens, UniProt Q07817). As to the kind of experiment: Time Resolved-Fluorescence Resonance Energy Transfer (TR-FRET) binding assay, competition with probe F-Bak. The procedure: Tb-anti-GST antibody was purchased from Invitrogen (Catalog No. PV4216).
For the assay, test compounds were serially diluted in DMSO starting at 50 μM (2× starting concentration; 10% DMSO) and 10 μL transferred into a 384-well plate. 10 μL of a protein/probe/antibody mix was then added to each well at final concentrations listed below:
The samples were then mixed on a shaker for 1 minute and incubated for an additional 2 hours at room temperature. For each assay plate, a probe/antibody and protein/antibody/probe mixture were included as a negative and a positive control, respectively. Fluorescence was measured on the Envision (Perkin Elmer) using a 340/35 nm excitation filter and 520/525 (F-Bak) and 495/510 nm (Tb-labeled anti-his antibody) emission filters. Dissociation constants (Ki) were determined using Wang's equation (Wang, 1995, FEBS Lett. 360:111-114). The TR-FRET assay can be performed in the presence of varying concentrations of human serum (HS) or fetal bovine serum (FBS). Compounds were tested both without HS and in the presence of 1% HS.
(In general: In TR-FRET formats the signal depends on donor and acceptor labels being close together.)

The mark [3] stands for this setting: in the presence of 1% HS, read-out: Bcl-xL Binding Ki (nM, 1% HS).
[4] abbreviates: without HS, read-out: Bcl-xL Binding Ki.

Bcl-xL, sequence (Q07817 whole entry): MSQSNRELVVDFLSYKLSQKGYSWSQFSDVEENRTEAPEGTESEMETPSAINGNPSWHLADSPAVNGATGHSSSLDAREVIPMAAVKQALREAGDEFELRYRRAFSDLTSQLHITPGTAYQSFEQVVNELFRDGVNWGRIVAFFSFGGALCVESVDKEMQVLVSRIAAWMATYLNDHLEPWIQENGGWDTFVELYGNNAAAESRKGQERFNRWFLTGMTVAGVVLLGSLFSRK

In the case of `Cc1c(-c2ccc(N3CCc4cccc(C(=O)Nc5nc6ccccc6s5)c4C3)nc2C(=O)O)cnn1CC12CC3(C)CC(C)(C1)CC(OCCNCCOCCOCC(=O)O)(C3)C2` [Example 1.1, 6-[8-(1,3-benzothiazol-2-ylcarbamoyl)-3,4-dihydroisoquinolin-2 (1H)-yl]-3-[1-({3-[2-({2-[2-(carboxymethoxy)ethoxy]ethyl}amino)ethoxy]-5,7-dimethyltricyclo[3.3.1.1^3,7]dec-1-yl]methyl)-5-methyl-1H-pyrazol-4-yl]pyridine-2-carboxylic acid], in assay [1], the 50% effective concentration (EC50) was determined as 26 nM. Moreover, the Ki in assay [2] (setting [3]) is 0.09 nM; in assay [2] (setting [4]), below 0.001 nM.
In the same order, the values of `Cc1c(-c2ccc(N3CCc4cccc(C(=O)Nc5nc6ccccc6s5)c4C3)nc2C(=O)O)cnn1CC12CC3(C)CC(C)(C1)CC(OCCNCCS(=O)(=O)N[C@H]1C(O)O[C@H](CO)[C@@H](O)[C@@H]1O)(C3)C2` (stereo partly drawn) [Example 1.3, 2-{[(2-{[2-({3-[(4-{6-[8-(1,3-benzothiazol-2-ylcarbamoyl)-3,4-dihydroisoquinolin-2 (1H)-yl]-2-carboxypyridin-3-yl}-5-methyl-1H-pyrazol-1-yl)methyl]-5,7-dimethyltricyclo[3.3.1.1^3,7]dec-1-yl)oxy)ethyl]amino)ethyl)sulfonyl]amino}-2-deoxy-D-glucopyranose] are 23 nM, 0.18 nM and 0.0011 nM.
In the case of `Cc1c(-c2ccc(N3CCc4cccc(C(=O)Nc5nc6ccccc6s5)c4C3)nc2C(=O)O)cnn1CC12CC3(C)CC(C)(C1)CC(OCCNCC(O)CO)(C3)C2` (centres unmarked) [Example 1.7, 6-[8-(1,3-benzothiazol-2-ylcarbamoyl)-3,4-dihydroisoquinolin-2 (1H)-yl]-3-{1-[(3-{2-[(2,3-dihydroxypropyl)amino]ethoxy}-5,7-dimethyltricyclo[3.3.1.1^3,7]dec-1-yl)methyl]-5-methyl-1H-pyrazol-4-yl}pyridine-2-carboxylic acid], in assay [1], the EC50 stood at 12 nM. Moreover, the Ki in assay [2] (setting [3]) worked out at 0.24 nM.
As to `Cc1c(-c2ccc(N3CCc4cccc(C(=O)Nc5nc6ccccc6s5)c4C3)nc2C(=O)O)cnn1CC12CC3(C)CC(C)(C1)CC(OCCNCc1ccc(S(=O)(=O)N[C@@H]4[C@@H](O)[C@H](O)[C@@H](CO)O[C@H]4O)cc1)(C3)C2` [Example 1.8, 2-({[4-({[2-({3-[(4-{6-[8-(1,3-benzothiazol-2-ylcarbamoyl)-3,4-dihydroisoquinolin-2 (1H)-yl]-2-carboxypyridin-3-yl}-5-methyl-1H-pyrazol-1-yl)methyl]-5,7-dimethyltricyclo[3.3.1.1^3,7]dec-1-yl}oxy)ethyl]amino}methyl)phenyl]sulfonyl}amino)-2-deoxy-beta-D-glucopyranose], the midpoint of the response in assay [1], the EC50, lay at 108 nM. The Ki came to 0.19 nM in assay [2] (setting [3]) and 0.0019 nM in assay [2] (setting [4]).
Regarding `Cc1c(-c2ccc(N3CCc4cccc(C(=O)Nc5nc6ccccc6s5)c4C3)nc2C(=O)O)cnn1CC12CC3(C)CC(C)(C1)CC(OCCNCCc1cn([C@@H]4O[C@H](C(=O)O)[C@@H](O)[C@H](O)[C@H]4O)nn1)(C3)C2` [Example 1.9, 8-(1,3-benzothiazol-2-ylcarbamoyl)-2-{6-carboxy-5-[1-({3-[2-({2-[1-(beta-D-glucopyranuronosyl)-1H-1,2,3-triazol-4-yl]ethyl}amino)ethoxy]-5,7-dimethyltricyclo[3.3.1.1^3,7]dec-1-yl}methyl)-5-methyl-1H-pyrazol-4-yl]pyridin-2-yl}-1,2,3,4-tetrahydroisoquinoline], the values for the Ki in assay [2] (setting [3]) and in assay [2] (setting [4]) were 0.047 nM and below 0.001 nM, respectively.
In the case of `Cc1c(-c2ccc(N3CCc4cccc(C(=O)Nc5nc6ccccc6s5)c4C3)nc2C(=O)O)cnn1CC12CC3(C)CC(C)(C1)CC(OCCOCCNCCCP(=O)(O)O)(C3)C2` [Example 1.16, 6-[8-(1,3-benzothiazol-2-ylcarbamoyl)-3,4-dihydroisoquinolin-2 (1H)-yl]-3-(1-{[3,5-dimethyl-7-(2-{2-[(3-phosphonopropyl)amino]ethoxy}ethoxy)tricyclo[3.3.1.1^3,7]dec-1-yl]methyl}-5-methyl-1H-pyrazol-4-yl}pyridine-2-carboxylic acid], a half-maximal effect in assay [1] (EC50) was put at 218 nM. Also, the Ki in assay [2] (setting [3]) was 0.17 nM; in assay [2] (setting [4]), below 0.001 nM.
`Cc1c(-c2ccc(N3CCc4cccc(C(=O)Nc5nc6ccccc6s5)c4C3)nc2C(=O)O)cnn1CC12CC3(C)CC(C)(C1)CC(OCCN(C)C(=O)[C@@H](N)CC(=O)O)(C3)C2` [Example 1.17, 3-{1-[(3-{2-[L-alpha-aspartyl(methyl)amino]ethoxy}-5,7-dimethyltricyclo[3.3.1.1^3,7]dec-1-yl)methyl]-5-methyl-1H-pyrazol-4-yl}-6-[8-(1,3-benzothiazol-2-ylcarbamoyl)-3,4-dihydroisoquinolin-2 (1H)-yl]pyridine-2-carboxylic acid] came in with an EC50 in assay [1] of 576 nM. The results for the Ki in assay [2] (setting [3]) and in assay [2] (setting [4]) were 0.3 nM and 0.022 nM, respectively.
Turning to `Cc1c(-c2ccc(-c3ccc4c(c3)N(C(=O)Nc3nc5ccccc5s3)CCC4)nc2C(=O)O)cnn1CC12CC3(C)CC(C)(C1)CC(OCCN(C)C(=O)[C@@H](N)CS(=O)(=O)O)(C3)C2` [Example 1.21, 6-[1-(1,3-benzothiazol-2-ylcarbamoyl)-1,2,3,4-tetrahydroquinolin-7-yl]-3-(1-[(3,5-dimethyl-7-(2-[methyl(3-sulfo-L-alanyl)amino]ethoxy}tricyclo[3.3.1.1^3,7]dec-1-yl)methyl]-5-methyl-1H-pyrazol-4-yl)pyridine-2-carboxylic acid], in assay [1], the response was half-maximal at 420 nM (EC50). Moreover, the values for the Ki in assay [2] (setting [3]) and in assay [2] (setting [4]) were 0.22 nM and 0.004 nM, respectively.
Regarding `Cc1c(-c2ccc(-c3ccc4c(c3)N(C(=O)Nc3nc5ccccc5s3)CCC4)nc2C(=O)O)cnn1CC12CC3(C)CC(C)(C1)CC(OCCN(C)C1CNC1)(C3)C2` [Example 1.65, 3-{1-[(3-{2-[azetidin-3-yl(methyl)amino]ethoxy}-5,7-dimethyltricyclo[3.3.1.1^3,7]dec-1-yl)methyl]-5-methyl-1H-pyrazol-4-yl}-6-[1-(1,3-benzothiazol-2-ylcarbamoyl)-1,2,3,4-tetrahydroquinolin-7-yl]pyridine-2-carboxylic acid], the Ki in assay [2] (setting [3]) is 0.099 nM; in assay [2] (setting [4]) it was below 0.01 nM.
In the same order, the values of `CO[C@H]1O[C@@H](Cn2cc(CCCNCCOC34CC5(C)CC(C)(CC(Cn6ncc(-c7ccc(N8CCc9cccc(C(=O)Nc%10nc%11ccccc%11s%10)c9C8)nc7C(=O)O)c6C)(C5)C3)C4)nn2)[C@H](O)[C@@H](O)[C@@H]1O` [Example 1.67, methyl 6-[4-(3-{[2-({3-[(4-{6-[8-(1,3-benzothiazol-2-ylcarbamoyl)-3,4-dihydroisoquinolin-2 (1H)-yl]-2-carboxypyridin-3-yl}-5-methyl-1H-pyrazol-1-yl)methyl]-5,7-dimethyltricyclo[3.3.1.1^3,7]dec-1-yl}oxy)ethyl]amino}propyl)-1H-1,2,3-triazol-1-yl]-6-deoxy-beta-L-glucopyranoside] are 0.51 nM and below 0.01 nM.
For `Cc1c(-c2ccc(N3CCc4cccc(C(=O)Nc5nc6ccccc6s5)c4C3)nc2C(=O)O)cnn1CC12CC3(C)CC(C)(C1)CC(NC(=O)CNCCS(=O)(=O)O)(C3)C2` [Example 1.89, 6-{8-[(1,3-benzothiazol-2-yl)carbamoyl]-3,4-dihydroisoquinolin-2 (1H)-yl)-3-{1-[(3,5-dimethyl-7-{2-[(2-sulfoethyl)amino]acetamido}tricyclo[3.3.1.1^3,7]decan-1-yl)methyl]-5-methyl-1H-pyrazol-4-yl}pyridine-2-carboxylic acid], the Ki in assay [2] (setting [3]) was 0.97 nM; in assay [2] (setting [4]), below 0.01 nM.
Turning to `Cc1c(-c2ccc(N3CCc4cccc(C(=O)Nc5nc6ccccc6s5)c4C3)nc2C(=O)O)cnn1CC12CC3(C)CC(C)(C1)CC(SCCNCCS(=O)(=O)O)(C3)C2` [Example 1.90, 6-[8-(1,3-benzothiazol-2-ylcarbamoyl)-3,4-dihydroisoquinolin-2 (1H)-yl]-3-(1-{[3,5-dimethyl-7-((2-[(2-sulfoethyl)amino]ethyl)sulfanyl)tricyclo[3.3.1.1^3,7]dec-1-yl]methyl)-5-methyl-1H-pyrazol-4-yl)pyridine-2-carboxylic acid], the Ki is 4.2 nM in assay [2] (setting [3]) and 0.13 nM in assay [2] (setting [4]).
In the same order, the values of `Cc1c(-c2ccc(N3CCc4cccc(C(=O)Nc5nc6ccccc6s5)c4C3)nc2C(=O)O)cnn1CC12CC3(C)CC(C)(CC(CCCNCCS(=O)(=O)O)(C3)C1)C2` [Example 1.91, 6-{8-[(1,3-benzothiazol-2-yl)carbamoyl]-3,4-dihydroisoquinolin-2 (1H)-yl}-3-{1-[(3,5-dimethyl-7-{3-[(2-sulfoethyl)amino]propyl}tricyclo[3.3.1.1^3,7]decan-1-yl)methyl]-5-methyl-1H-pyrazol-4-yl}pyridine-2-carboxylic acid] are 2.8 nM and 0.064 nM.
